The record followed here is ChEMBL document CHEMBL1149401, “Isolation and inhibitory activity against ERK phosphorylation of hydroxyanthraquinones from rhubarb” (2006).

Broadly, the inhibition is the change of the read-out against control, counted positive when it falls.

Assay [1] deals with Platelet-derived growth factor receptor (Homo sapiens) (UniProt P09619+P16234). Briefly: Inhibitory activity on PDGF-induced ERK phosphorylation in NIH3T3 cells at 20 uM. The format is cell-based.
In a further assay the test system is PC-3. Briefly: Antiproliferative activity against prostate cancer PC3 cell line at 20 uM by MTT method. The format is functional. The conditions noted are these: Homo sapiens. For orientation: Tetrazolium assays rely on reduction of a dye to a coloured formazan, in cell work by metabolically active cells.
The next assay concerns A-431. The experiment in a line: Antiproliferative activity against human epidermal carcinoma A431 cell line at 20 uM by MTT method. Format: functional.
A further assay deals with Fusarium oxysporum. The experiment in a line: Antifungal activity against Fusarium oxysporum at 0.5 mg/ml. Format: functional.
The subject of a further assay is Fusarium graminearum. The experiment in a line: Antifungal activity against Gibberella zeae at 0.5 mg/ml. The format is functional.
The test system of a further assay is Phytophthora infestans. The experiment in a line: Antifungal activity against Phytopthora infestans at 0.5 mg/ml. Format: functional.
The target in assay [2] is Epidermal growth factor receptor (Homo sapiens) (UniProt P00533). The experiment in a line: Inhibitory activity on EGF-induced ERK phosphorylation in prostate cancer PC3 cell line at 20 uM. Format: cell-based. The note with it: PC-3.

Activity calls are given as the source filed them. No cut-off for these calls is given here.

Sequence of Epidermal growth factor receptor (Homo sapiens) (P00533 whole entry): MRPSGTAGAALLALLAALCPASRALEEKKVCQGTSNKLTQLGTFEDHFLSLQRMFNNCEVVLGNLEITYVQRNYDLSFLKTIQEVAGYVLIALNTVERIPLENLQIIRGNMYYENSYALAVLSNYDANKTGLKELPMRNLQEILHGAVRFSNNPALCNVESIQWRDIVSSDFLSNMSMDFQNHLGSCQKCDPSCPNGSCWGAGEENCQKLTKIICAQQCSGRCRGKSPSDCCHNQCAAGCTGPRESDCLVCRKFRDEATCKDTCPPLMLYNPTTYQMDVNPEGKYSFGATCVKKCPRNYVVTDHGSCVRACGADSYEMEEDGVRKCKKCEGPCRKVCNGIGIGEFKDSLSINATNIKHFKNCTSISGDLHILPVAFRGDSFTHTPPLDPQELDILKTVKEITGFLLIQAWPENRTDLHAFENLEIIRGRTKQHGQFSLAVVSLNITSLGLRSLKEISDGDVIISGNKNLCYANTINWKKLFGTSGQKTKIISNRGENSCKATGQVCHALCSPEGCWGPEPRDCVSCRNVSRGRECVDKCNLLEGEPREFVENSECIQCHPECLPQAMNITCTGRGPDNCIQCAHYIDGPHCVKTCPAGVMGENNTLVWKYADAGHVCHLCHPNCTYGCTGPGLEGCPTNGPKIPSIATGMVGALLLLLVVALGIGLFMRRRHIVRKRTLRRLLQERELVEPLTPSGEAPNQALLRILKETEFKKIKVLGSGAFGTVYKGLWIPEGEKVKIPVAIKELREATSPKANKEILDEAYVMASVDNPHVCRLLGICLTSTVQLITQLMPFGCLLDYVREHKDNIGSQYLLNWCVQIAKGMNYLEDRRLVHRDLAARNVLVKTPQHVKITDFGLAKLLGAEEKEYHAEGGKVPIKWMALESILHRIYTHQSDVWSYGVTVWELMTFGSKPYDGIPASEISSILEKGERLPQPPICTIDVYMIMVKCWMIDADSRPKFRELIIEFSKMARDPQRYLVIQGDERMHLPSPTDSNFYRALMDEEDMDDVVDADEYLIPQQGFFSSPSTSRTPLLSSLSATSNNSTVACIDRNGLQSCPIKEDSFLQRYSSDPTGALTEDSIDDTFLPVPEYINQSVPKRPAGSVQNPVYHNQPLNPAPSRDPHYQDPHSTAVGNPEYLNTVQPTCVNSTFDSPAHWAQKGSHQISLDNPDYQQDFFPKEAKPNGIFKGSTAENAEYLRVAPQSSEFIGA

With `Cc1cc(O)c2c(c1)C(=O)c1cccc(O)c1C2=O` [CHRYSOPHANOL], in assay [1], the outcome was inactive. Moreover, the inhibition at 20 µM with PC-3 worked out at 19.5%; in the assay on A-431 it was 21.1%. The values for the inhibition at 500 µg/mL in the assay with Fusarium oxysporum, in the assay with Fusarium graminearum and in the assay with Phytophthora infestans were 5.4%, 0% and 2.4%, respectively.
`O=C(O)c1cc(O)c2c(c1)C(=O)c1cccc(O)c1C2=O` [RHEIN]: the result in assay [1] was inactive. In addition, the inhibition at 20 µM in the assay with PC-3 is 54.2%. For the same compound, the inhibition entry in the assay with A-431 is “inactive”. Besides, the values for the inhibition at 500 µg/mL with Fusarium oxysporum, in the assay with Fusarium graminearum and in the assay with Phytophthora infestans were 39.8%, 33.4% and 39.5%, respectively.
Take `Cc1cc(O)c2c(c1)C(=O)c1cc(O)cc(O)c1C2=O` [EMODIN]: the outcome in assay [1] was inactive. In addition, the inhibition result in the assay on PC-3 and in the assay with A-431 was “inactive” each time. Also, the inhibition at 500 µg/mL with Fusarium oxysporum came to 9.37%; in the assay on Fusarium graminearum it was 25.7%; in the assay with Phytophthora infestans, 21.2%.
As to `COc1cc(O)c2c(c1)C(=O)c1cc(C)cc(O)c1C2=O` [PHYSCION], the outcome in assay [1] was inactive. Besides, the inhibition at 20 µM came out at 73.2% in the assay with PC-3 and 80.5% in the assay on A-431. Further, the values for the inhibition at 500 µg/mL in the assay on Fusarium oxysporum, in the assay on Fusarium graminearum and in the assay with Phytophthora infestans were 0%, 10.1% and 19.1%, respectively.
On to `O=C1c2cccc(O)c2C(=O)c2c(O)cc(CO)cc21` [ALOE-EMODIN], for which, in assay [1], the outcome was inactive. Besides, the outcome in assay [2] was Active. The inhibition at 20 µM came to 63.4% with PC-3 and 73.6% with A-431. In addition, the inhibition at 500 µg/mL in the assay with Fusarium oxysporum was determined as 28.8%; in the assay on Fusarium graminearum, 37.1%; in the assay with Phytophthora infestans, 24.4%.
